The source of these data is patent US20060148020A1, “Inhibitors of gst a3-3 and gst a1-1 for the treatment of cancer” (priority 2002, published 2006).

Each structure is given as a SMILES string. Read-outs that look alike come from different tables or passages of the source.

Experiment [1] deals with T1, GST A1-1 (Homo sapiens, UniProt P08263).
T1 sequence (P08263 1-222): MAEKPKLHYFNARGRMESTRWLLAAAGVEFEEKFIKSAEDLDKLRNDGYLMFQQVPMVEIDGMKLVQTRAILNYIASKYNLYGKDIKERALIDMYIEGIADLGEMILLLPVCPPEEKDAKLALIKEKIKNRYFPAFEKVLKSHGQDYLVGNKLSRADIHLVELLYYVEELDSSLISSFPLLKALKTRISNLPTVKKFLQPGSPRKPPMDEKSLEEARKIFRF
The settings on record: read-out: IC50 Values GST A1-1.

Experiment [2] deals with T2, GST A2-2 (Homo sapiens, UniProt P09210).
T2 sequence (P09210 1-222): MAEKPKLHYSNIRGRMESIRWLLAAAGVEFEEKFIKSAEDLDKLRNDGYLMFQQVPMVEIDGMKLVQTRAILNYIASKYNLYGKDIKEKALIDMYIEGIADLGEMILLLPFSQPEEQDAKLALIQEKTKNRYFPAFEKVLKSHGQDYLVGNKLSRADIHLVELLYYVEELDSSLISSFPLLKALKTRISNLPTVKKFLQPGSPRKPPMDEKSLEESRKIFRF
Particulars: read-out: IC50 Values GST A2-2.

The target of experiment [3] is T3, GST A3-3 (Homo sapiens, UniProt Q16772).
T3 sequence (Q16772 1-222): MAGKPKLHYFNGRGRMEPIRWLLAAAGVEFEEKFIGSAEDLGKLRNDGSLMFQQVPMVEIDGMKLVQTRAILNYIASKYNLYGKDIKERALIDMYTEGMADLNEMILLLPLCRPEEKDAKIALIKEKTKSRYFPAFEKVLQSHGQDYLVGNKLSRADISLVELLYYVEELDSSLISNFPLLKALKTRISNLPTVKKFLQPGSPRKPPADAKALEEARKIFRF
The settings on record: read-out: IC50 Values GST A3-3.

Experiment [4] concerns the target T1, GST A1-1. Put plainly: biochemical.
The target in experiment [5] is T3, GST A3-3. Put plainly: biochemical.
Experiment [6] has as its target T2, GST A2-2. Put plainly: biochemical.

For orientation: IC50 means the concentration at which inhibition is half-maximal. With `CCC[CH2][Sn]([CH2]CCC)([CH2]CCC)[O]C(C)=O` [Bu3SnAc], the IC50 worked out at 18 nM on GST A1-1 [1], 410 nM on GST A2-2 [2] and 18 nM on GST A3-3 [3].

Consider `[Br][Pb]([c]1ccccc1)([c]1ccccc1)[c]1ccccc1` [Ph3PbBr], for which the half-maximal inhibitory concentration (IC50) at GST A1-1 [4] turned out to be 8.6 nM; at GST A3-3 [5] it was 160 nM.

Regarding `[Cl][Pb]([c]1ccccc1)([c]1ccccc1)[c]1ccccc1` [Ph3PbCl], the IC50 against GST A1-1 [4] amounted to 4.6 nM; against GST A2-2 [6] it was 84 nM; at GST A3-3 [5], 13 nM.

Consider `CC(=O)[O][Sn]([c]1ccccc1)([c]1ccccc1)[c]1ccccc1` [Ph3SnAc], for which the half-maximal inhibitory concentration (IC50) at GST A1-1 [1] and on GST A3-3 [3] was 160 nM each time.

As for `C[CH2][Pb]([Cl])([CH2]C)[CH2]C` [Et3PbCl], the IC50 against GST A1-1 [4] amounted to 2000 nM; against GST A3-3 [5], 2300 nM.

Consider `C[CH2][Ge]([Cl])([CH2]C)[CH2]C` [Et3GeCl], for which the 50% inhibitory concentration (IC50) against GST A1-1 [4] was 56000 nM; at GST A2-2 [6], 800 nM; against GST A3-3 [5], 67000 nM.
